Assay results: patent US20100080852A1, “PHAMACEUTICAL COMPOSITION COMPRISING NANOPARTICLES AND CASEIN” (priority 2007, published 2010)
≈ marks a conversion by molar mass, not a printed value. Where two headings read alike, the source gives them in different places.

Columns and labels:
Log P value of the drugs = type: physicochemical; details: octanol/water
Source text: The first property of hydrophobic drugs is that they are extremely hydrophobic. Log P, defined as the base 10 logarithm of the ratio of the drug solubility in octanol to the drug solubility in water, is a widely accepted measure of hydrophobicity. By “extremely hydrophobic” is meant that the Log P value of the drug is at least 4.0, preferably at least 4.5, and most preferably at least 5.0. Log P may be measured experimentally or calculated using methods known in the art. When using a calculated value for Log P, the highest value calculated using any generally accepted method for calculating Log P is used. Calculated Log P values are often referred to by the calculation method, such as Clog P, Alog P, and Mlog P. The Log P may also be estimated using fragmentation methods, such as Crippen's fragmentation method (27 J. Chem. Inf. Comput. Sci. 21 (1987)); Viswanadhan's fragmentation method (29 J. Chem. Inf. Comput. Sci. 163 (1989)); or Broto's fragmentation method (19 Eur. J. Med. Chem.-Chim. Theor. 71 (1984). Preferably the Log P value is calculated by using the average value estimated using Crippen's, Viswanadhan's, and Broto's fragmentation methods.

[1] = Solubility of the drugs in MFD solution, PBS or water; type: physicochemical
[2] = MFD solution, fassgf or other biorelevant, read-out: solubility in MFD solution

SMILES | logP (Log P value of the drugs; read-out: Log P value) | solubility [1, 2] | solubility ([1]; PBS, aqueous buffer, read-out: solubility in PBS) | logP (Log P value of the drugs)
Cc1ccc(-c2cc(C(F)(F)F)nn2-c2ccc(S(N)(=O)=O)cc2)cc1 [Drug 1, 4-[5-(4-methylphenyl)-3-(trifluoromethyl)-1H-pyrazol-1-yl]benzenesulfonamide] | 3.75 | ~0.04 mg/mL (≈ 105 µM) |  | 
CCc1cc(Oc2cccc(N(Cc3cccc(OC(F)(F)C(F)F)c3)C[C@@H](O)C(F)(F)F)c2)ccc1Cl [Drug 2, (2R)-3-[[3-(4-chloro-3-ethylphenoxy)phenyl][[3-(1,1,2,2-tetrafluoroethoxy)phenyl]methyl]amino]-1,1,1-trifluoro-2-propanol] | 10 |  | < 0.0001 mg/mL | 
CC[C@@H]1C[C@H](N(Cc2cc(C(F)(F)F)cc(C(F)(F)F)c2)C(C)=O)c2cc(C(F)(F)F)ccc2N1C(=O)OC(C)C [Drug 3, [2R,4S] 4-[acetyl-(3,5-bis-trifluoromethyl-benzyl)-amino]-2-ethyl-6-trifluoromethyl-3,4-dihydro-2H-quinoline-1-carboxylic acid isopropyl ester] |  | ~0.011 mg/mL (≈ 18.4 µM) |  | 
c1cc[c]([Bi]([c]2ccccc2)[c]2ccccc2)cc1 [Drug 5, triphenyl bismuth] |  |  |  | 6
